According to patent publication US6579861B2, “1α-hydroxy-2-methylene-19-nor-homopregnacalciferol and its uses” (Wisconsin Alumni Research Foundation, priority 2000, dated 2003):
“Also recorded” adds a separate entry of the source.

Legend:
[1] = tested on: Sprague-Dawley rats; assay: Intestinal calcium transport after chronic i.p. doses in vitamin D-deficient rats; assay type: in vivo, rat; settings: for Intestinal Calcium Transport (S/M): vitamin D-deficient rats, low Ca diet, average ± SE, 5 animals
Experimental: (§1) Male, weanling Sprague-Dawley rats were placed on Diet 11 (0.47% Ca) diet+AEK for 11 days, followed by Diet 11 (0.02% Ca)+AEK for 31 days. Dosing (i.p.) began 7 days prior to sacrifice. Doses were given on a daily basis, 24 hours apart. The first 10 cm of the intestine was collected for gut transport studies and serum was collected for bone Ca mobilization analysis. The results are reported in Table 1 and illustrated in the graph of FIG. 2.

[2] = tested on: Sprague-Dawley rats; assay: Serum calcium (bone calcium mobilization) after chronic i.p. doses in vitamin D-deficient rats; assay type: in vivo, rat; settings: for Serum Calcium (bone calcium mobilization): vitamin D-deficient rats, low Ca diet, average ± SE, 5 animals
Experimental: as §1

[3] = tested on: Sprague-Dawley rats; assay: Pre-dose and post-dose serum calcium (bone mobilization) after a single oral dose in rats; assay type: in vivo, rat; settings: average of 6 rats; for Post-Dose serum calcium: about 24 h after a single 1 nmol oral dose (gavage, vegetable oil); for Pre-Dose serum calcium: baseline, about 24 h before sacrifice, before the 1 nmol oral dose
Experimental: Weanling, male Sprague-Dawley rats (6/group) were placed on a vitamin D-deficient diet for a total of 5 weeks. During the first three weeks, the animals were fed a normal calcium diet (Diet 11+0.47% Ca+AEK supplement) and the last two weeks they were fed a low calcium diet (Diet 11+0.02% Ca+AEK supplement). Approximately 24 hours prior to sacrifice, animals were tail bled and then dosed with 1 nmol of the respective compounds. The doses were delivered orally in 100 microliters of vegetable oil by gavage. Serum was collected approximately 24 hour post-dose and it, along with the pre-dose serum, were subjected to total calcium analysis using atomic absorption spectrometry.

[4] = target: T1, vitamin D pig intestinal nuclear receptor (Sus scrofa, UniProt A3RGC1); assay: Competitive binding of [3H]-1,25-(OH)2-D3 to the porcine intestinal vitamin D receptor; settings: FIG. 1, result in words
T1 construct: from tissue; host or cells: pig intestine (nuclear receptor preparation)
T1 sequence (A3RGC1 1-427): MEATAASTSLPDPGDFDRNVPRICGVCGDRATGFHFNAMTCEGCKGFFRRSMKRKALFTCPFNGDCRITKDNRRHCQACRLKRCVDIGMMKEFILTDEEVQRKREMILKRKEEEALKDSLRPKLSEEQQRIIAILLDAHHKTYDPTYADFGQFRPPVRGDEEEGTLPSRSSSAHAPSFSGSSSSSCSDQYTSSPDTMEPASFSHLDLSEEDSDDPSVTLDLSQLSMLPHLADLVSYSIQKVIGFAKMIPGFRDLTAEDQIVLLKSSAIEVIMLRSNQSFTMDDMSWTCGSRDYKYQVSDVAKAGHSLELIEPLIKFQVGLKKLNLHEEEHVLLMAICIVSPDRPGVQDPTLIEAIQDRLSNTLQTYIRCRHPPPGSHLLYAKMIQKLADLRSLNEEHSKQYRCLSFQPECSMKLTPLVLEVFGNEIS
Source text: FIG. 1 is a graph illustrating the relative activity of 1α-hydroxy-2-methylene-19-nor-homopregnacalciferol and 1α,25-dihydroxyvitamin D3 to compete for binding of [^3H]-1,25-(OH)2-D3 to the vitamin D pig intestinal nuclear receptor;
The introduction of a methylene group to the 2-position of 1α-hydroxy-19-nor-homopregnacalciferol had little or no effect on binding to the porcine intestinal vitamin D receptor, as compared to 1α,25-dihydroxyvitamin D3.
Competitive binding of the analogs to the porcine intestinal receptor was carried out by the method described by Dame et al (Biochemistry 25, 4523-4534, 1986).

[5] = tested on: HL-60 cells; assay: Differentiation of HL-60 promyelocytes into monocytes; assay type: cell-based; settings: FIG. 4; result in words
Experimental: FIG. 4 is a graph illustrating the percent HL-60 cell differentiation as a function of the concentration of 1α-hydroxy-2-methylene-19-nor-homopregnacalciferol and of 1α,25-dihydroxyvitamin D3;
The differentiation of HL-60 promyelocytic into monocytes was determined as described by Ostrem et al (J. Biol. Chem. 262, 14164-14171, 1987).

[6] = tested on: 24-hydroxylase (240Hase) gene promoter in ROS 17/2.8 (bone) cells; assay: Transcriptional activity, 24-hydroxylase promoter luciferase reporter in bone cells; assay type: cell-based
Experimental: (§2) Transcriptional activity was measured in two different cell lines. ROS 17/2.8 (bone) or LLC (kidney) cells were stably transfected with a 24-hydroxylase (240Hase) gene promoter upstream of a luciferase reporter gene (Arbour et al, 1998). Cells were given a range of doses. Sixteen hours after dosing the cells were harvested and luciferase activities were measured using a luminometer. The EC50 of 1α-hydroxy-2-methylene-19-nor-homopregnacalciferol is about 10 times lower in bone cells than kidney cells. […] The graphs of FIGS. 5 and 6 are representative of 4 to 5 independent experiments. In FIGS. 5 and 6, RLU means relative luciferase units.

[7] = tested on: 24-hydroxylase (240Hase) gene promoter in LLC (kidney) cells; assay: Transcriptional activity, 24-hydroxylase promoter luciferase reporter in kidney cells; assay type: cell-based; settings: 16 h after dosing, FIG. 6, result in words
Experimental: as §2

[8] = listed as 1α-hydroxy-2-methylene-19-nor-homopregnacalciferol

Binding to the vitamin D receptor compared to 1,25-(OH)2D3 ([4]; listed as 2 MHP)	EC50 in bone cells relative to kidney cells (times lower) ([6]; ROS 17/2.8 (bone) versus LLC (kidney) cells, luciferase reporter)	SMILES	Intestinal Calcium Transport (S/M) ([1]; 250 pmol/day/7 days i.p.)	Intestinal Calcium Transport (S/M) ([1]; 500 pmol/day/7 days i.p.)	Serum Calcium (bone calcium mobilization) ([2]; 250 pmol/day/7 days i.p.) [mg/100 ml]	Serum Calcium (bone calcium mobilization) ([2]; 500 pmol/day/7 days i.p.) [mg/100 ml]	Post-Dose serum calcium [3] [mg/dL]	Pre-Dose serum calcium [3] [mg/dL]	Binding to the vitamin D receptor compared to 1,25-(OH)2D3 [4, 8]	Intestinal calcium transport activity compared to 1,25(OH)2D3 ([1]; Table 1 and FIG. 2, result in words)	Bone calcium mobilization activity (raising serum calcium) compared to 1,25(OH)2D3 ([2]; Table 1, FIG. 3 and FIG. 7, result in words)	HL-60 differentiation potency compared to 1,25(OH)2D3 [5]	Transcriptional activity in bone cells ([6]; ROS 17/2.8 cells, 16 h after dosing, FIG. 5, result in words)	Transcriptional activity in kidney cells [7, 8]	Transcriptional activity in kidney cells ([7]; listed as 2 MHP)
–	–	C=C1/C(=C\C=C2/CCC[C@]3(C)[C@@H]([C@H](C)CCCC(C)(C)O)CC[C@@H]23)C[C@@H](O)C[C@@H]1O [1,25-(OH)2D3, 1α,25-dihydroxyvitamin D3, reference compound]	5.21 ± 0.73	6.85 ± 0.79	7.40 ± 0.47	7.20 ± 0.33	5.42	4.51	–	–	–	–	–	–	–
–	–	C=C1[C@H](O)CC(=C/C=C2\CCC[C@]3(C)[C@@H]([C@@H](C)CCCC(C)(C)O)CC[C@@H]23)C[C@H]1O [2-methylene-19-nor-20(S)-1α,25-dihydroxyvitamin D3]	–	–	–	–	7.33	4.45	–	–	–	–	–	–	–
slightly less active than 1,25(OH)2D3	about 10 times	C=C1[C@H](O)CC(=C/C=C2\CCC[C@@]3(C)C2CCC3C(C)C)C[C@H]1O (stereo partly drawn) [2MHP, 1α-hydroxy-2-methylene-19-nor-homopregnacalciferol]	3.22 ± 0.14	3.90 ± 0.38	4.84 ± 0.37	3.96 ± 0.19	4.36	4.86	bound equally well to the porcine receptor as compared to the standard 1,25-(OH)2D3	very little activity; also recorded: significantly less than that of 1,25-(OH)2D3	very little bone calcium mobilization activity; also recorded: significantly less potent than 1,25(OH)2D3	almost as potent as 1,25(OH)2D3; also recorded: only slightly less active than 1,25-(OH)2D3	has transcriptional activity in bone cells; also recorded: significant transcriptional activity	greater than or equivalent to 1,25(OH)2D3	has transcriptional activity in kidney cells; also recorded: significant transcriptional activity
